Experimental data from US20120157471A1, “BENZIMIDAZOLE DERIVATIVES” (PFIZER INC., priority 2009, published 2012).

How the values were obtained:
[1] = biological target: T1, human Smo (amino acids 181-787) (Homo sapiens, UniProt Q99835); test: Smo radioligand competition binding assay (displacement of 3H-PF-03451358 from HEK293 membranes); conditions: for inhibition at 0.05 µM: 0.05 μM test compound, displacement of 3H-PF-03451358, read-out: SMO % inh. @ 0.05 μM; for IC50: radioligand competition binding
T1 construct: expressed in transfected cells; membrane preparation
T1 sequence (Q99835 181-787): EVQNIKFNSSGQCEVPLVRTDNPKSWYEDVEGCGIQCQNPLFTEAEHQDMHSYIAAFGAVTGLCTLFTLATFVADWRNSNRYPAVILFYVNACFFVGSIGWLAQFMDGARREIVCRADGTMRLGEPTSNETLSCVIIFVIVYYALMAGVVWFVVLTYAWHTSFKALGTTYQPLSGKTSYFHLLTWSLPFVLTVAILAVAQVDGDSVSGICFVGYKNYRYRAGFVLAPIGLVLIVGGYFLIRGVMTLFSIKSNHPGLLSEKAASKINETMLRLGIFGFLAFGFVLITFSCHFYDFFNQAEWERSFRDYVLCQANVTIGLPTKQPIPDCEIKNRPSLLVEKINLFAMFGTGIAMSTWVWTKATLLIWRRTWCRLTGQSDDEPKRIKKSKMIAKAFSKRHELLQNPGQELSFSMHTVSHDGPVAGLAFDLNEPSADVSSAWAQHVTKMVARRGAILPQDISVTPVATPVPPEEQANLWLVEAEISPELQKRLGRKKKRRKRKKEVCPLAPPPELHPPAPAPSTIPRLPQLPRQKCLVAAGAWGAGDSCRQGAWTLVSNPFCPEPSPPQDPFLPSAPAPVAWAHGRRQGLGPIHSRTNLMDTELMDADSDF
Procedure, shortened: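 Membranes (40 μg protein/well) from HEK293 expressing murine Igk-leader-fused Smo 181-787 incubated 2 h at room temperature with 3 nM 3H-PF-03451358 in Tris pH 7.5/NaCl/MgCl2/EDTA/BSA buffer; filter-bound counts by scintillation. Nonspecific binding with 30 μM cold PF-03451358; IC50 from four-parameter fit of % inhibition.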

Gli-Luc/MEF cells (Smo) = test: Gli-Luc/MEF assay (Shh-stimulated luciferase reporter under the Gli response element); format: cell-based, mouse; conditions: Mus musculus, MEF, 48 h
Procedure, shortened: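 Mouse Gli-Luc/MEF cells dosed with compound (3-fold series, […]) plus 2 μg/mL recombinant mouse Shh, then incubated 48 h at 37° C, 5% CO2. Bright-Glo luminescence read; IC50 calculated from inhibition of Shh-stimulated luciferase.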

Compound | inhibition at 0.05 µM [1] | IC50 [1] | IC50 (Gli-Luc/MEF cells (Smo))
Cn1c(-c2cc(N3C[C@H]4CNS(=O)(=O)[C@H]4C3)ncc2Cl)nc2ccccc21 (stereo in doubt) [Example A-55, 2-{5-chloro-2-[(3aS,6aR)-1,1-dioxidohexahydro-5H-pyrrolo[3,4-d]isothiazol-5-yl]pyridin-4-yl}-1-methyl-1H-benzimidazole] | 98% | 0.026 µM | 0.01 µM
CC(=O)NCC1CCN(c2cc(-c3nc4ccccc4n3C)c(Cl)cn2)CC1 [Example A-87, N-({1-[5-chloro-4-(1-methyl-1H-benzimidazol-2-yl)pyridin-2-yl]piperidin-4-yl}methyl)acetamide] | 89% | 0.058 µM | 0.009 µM
Cn1c(-c2cc(N3CCC(S(C)(=O)=O)C3)ncc2Cl)nc2ccccc21 (stereo not shown) [Example A-24, 2-{5-chloro-2-[3-(methylsulfonyl)pyrrolidin-1-yl]pyridin-4-yl}-1-methyl-1H-benzimidazole] | 82% | 0.054 µM | 0.02 µM
Cn1c(-c2cc(N3CCC(O)(CN4CCOCC4)CC3)ncc2Cl)nc2ccccc21 [Example A-88, 1-[5-chloro-4-(1-methyl-1H-benzimidazol-2-yl)pyridin-2-yl]-4-(morpholin-4-ylmethyl)piperidin-4-ol] | 89% | 0.061 µM | 0.028 µM
CC(=O)NC1CN(c2cc(-c3nc4ccccc4n3C)c(Cl)cn2)C1 [Example A-43, N-{1-[5-chloro-4-(1-methyl-1H-benzimidazol-2-yl)pyridin-2-yl]azetidin-3-yl}acetamide] | 86% | 0.19 µM | 0.092 µM
Cn1c(-c2cc(N3CC[C@@H](O)C3)ncc2Cl)nc2ccccc21 [Example A-26, (3R)-1-[5-chloro-4-(1-methyl-1H-benzimidazol-2-yl)pyridin-2-yl]pyrrolidin-3-ol] | 64% | 0.166 µM | 0.049 µM
Cn1c(-c2cc(N3CCN(CC(O)CO)CC3)ncc2Cl)nc2ccccc21 (stereo not shown) [Example A-103, 3-{4-[5-chloro-4-(1-methyl-1H-benzimidazol-2-yl)pyridin-2-yl]piperazin-1-yl}propane-1,2-diol] | 80% | 0.153 µM | 0.027 µM
Cn1c(-c2cc(N3CCC4(CCCC(=O)N4)CC3)ncc2Cl)nc2ccccc21 [Example A-57, 9-[5-chloro-4-(1-methyl-1H-benzimidazol-2-yl)pyridin-2-yl]-1,9-diazaspiro[5.5]undecan-2-one] | 97% | 0.02 µM | 0.007 µM
Cn1c(-c2cc(N3CCC(OCCO)CC3)ncc2Cl)nc2ccccc21 [Example A-79, 2-({1-[5-chloro-4-(1-methyl-1H-benzimidazol-2-yl)pyridin-2-yl]piperidin-4-yl}oxy)ethanol] | 92% | 0.023 µM | 0.007 µM
Cn1c(-c2ccnc(N3CCCN(S(C)(=O)=O)CC3)c2)nc2ccccc21 [Example A-14, 1-methyl-2-{2-[4-(methylsulfonyl)-1,4-diazepan-1-yl]pyridin-4-yl}-1H-benzimidazole] | 84% | 0.031 µM | 0.084 µM
CC(=O)N1[C@@H]2CC[C@H]1CN(c1cc(-c3nc4ccccc4n3C)c(Cl)cn1)C2 [Example A-187, 2-{2-[(1R,5S)-8-acetyl-3,8-diazabicyclo[3.2.1]oct-3-yl]-5-chloropyridin-4-yl}-1-methyl-1H-benzimidazole] | 90% | 0.027 µM | 0.01 µM
CC(=O)N(C)C1CN(c2cc(-c3nc4ccccc4n3C)c(Cl)cn2)C1 [Example A-177, N-{1-[5-chloro-4-(1-methyl-1H-benzimidazol-2-yl)pyridin-2-yl]azetidin-3-yl}-N-methylacetamide] | 73% | 0.174 µM | 0.038 µM
Cn1c(-c2nc(N3CCN(C=O)CC3)ccc2Cl)nc2ccccc21 [Example B-5, 4-[5-chloro-6-(1-methyl-1H-benzimidazol-2-yl)pyridin-2-yl]piperazine-1-carbaldehyde] | 92% | 0.027 µM | 0.027 µM
Cc1nnc2n1CCN(c1cc(-c3nc4ccccc4n3C)c(Cl)cn1)C2 [Example A-117, 7-[5-chloro-4-(1-methyl-1H-benzimidazol-2-yl)pyridin-2-yl]-3-methyl-5,6,7,8-tetrahydro[1,2,4]triazolo[4,3-a]pyrazine] | 68% |  | 0.101 µM
Cn1c(-c2cc(N3CCN4C[C@H](O)CC4C3)ncc2Cl)nc2ccccc21 (stereo in doubt) [Example A-92, (7R,8aR)-2-[5-chloro-4-(1-methyl-1H-benzimidazol-2-yl)pyridin-2-yl]octahydropyrrolo[1,2-a]pyrazin-7-ol] | 88% | 0.079 µM | 0.046 µM
Cn1c(-c2cc(N3C[C@@H](CO)C(C)(CO)C3)ncc2Cl)nc2ccccc21 (stereo in doubt) [Example A-95, {(3R,4S)-1-[5-chloro-4-(1-methyl-1H-benzimidazol-2-yl)pyridin-2-yl]-3-methylpyrrolidine-3,4-diyl}dimethanol] | 86% | 0.07 µM | 0.038 µM
CC(=O)N1CCN(c2ncc(Cl)c(-c3nc4ccccc4n3C)n2)CC1 [Example C-1, 2-[2-(4-Acetylpiperazin-1-yl)-5-chloropyrimidin-4-yl]-1-methyl-1H-benzimidazole] | 96% | 0.012 µM | 0.007 µM
Cn1c(-c2cc(N3CCN4C[C@H](O)CC4C3)ncc2Cl)nc2ccccc21 (stereo in doubt) [Example A-60, (7R,8aS)-2-[5-chloro-4-(1-methyl-1H-benzimidazol-2-yl)pyridin-2-yl]octahydropyrrolo[1,2-a]pyrazin-7-ol] | 96% | 0.027 µM | 0.022 µM
CNC(=O)NC1CCN(c2cc(-c3nc4ccccc4n3C)c(F)cn2)CC1 [Example D-13, 1-{1-[5-fluoro-4-(1-methyl-1H-benzimidazol-2-yl)pyridin-2-yl]piperidin-4-yl}-3-methylurea] | 97% | 0.023 µM | 0.0134 µM
CNC(=O)N1CCN(c2ccc(Cl)c(-c3nc4ccccc4n3C)n2)CC1 [Example B-3, 4-[5-chloro-6-(1-methyl-1H-benzimidazol-2-yl)pyridin-2-yl]-N-methylpiperazine-1-carboxamide] | 88% | 0.049 µM | 0.02 µM
Cn1c(-c2cc(N3CC(O)C3)ncc2Cl)nc2ccccc21 [Example A-94, 1-[5-chloro-4-(1-methyl-1H-benzimidazol-2-yl)pyridin-2-yl]azetidin-3-ol] | 87% | 0.087 µM | 0.046 µM
Cn1c(-c2cc(N3[C@@H]4CC[C@H]3CNC4)ncc2Cl)nc2ccccc21 [Example A-194, 2-{5-chloro-2-[(1R,5S)-3,8-diazabicyclo[3.2.1]oct-8-yl]pyridin-4-yl}-1-methyl-1H-benzimidazole] | 111% | 0.013 µM | 0.0037 µM
Cn1c(-c2cc(N3CCC(C(=O)NCCO)CC3)ncc2Cl)nc2ccccc21 [Example A-74, 1-[5-chloro-4-(1-methyl-1H-benzimidazol-2-yl)pyridin-2-yl]-N-(2-hydroxyethyl)piperidine-4-carboxamide] | 93% | 0.027 µM | 0.011 µM
Cn1c(-c2cc(N3CCc4[nH]ncc4C3)ncc2Cl)nc2ccccc21 [Example A-173, 5-[5-chloro-4-(1-methyl-1H-benzimidazol-2-yl)pyridin-2-yl]-4,5,6,7-tetrahydro-1H-pyrazolo[4,3-c]pyridine] | 83% | 0.108 µM | 0.024 µM
COCc1nc(C2CCN(c3cc(-c4nc5ccccc5n4C)c(Cl)cn3)CC2)no1 [Example A-49, 2-(5-chloro-2-{4-[5-(methoxymethyl)-1,2,4-oxadiazol-3-yl]piperidin-1-yl}pyridin-4-yl)-1-methyl-1H-benzimidazole] | 100% | 0.011 µM | 0.007 µM
Cn1c(-c2cc(N3CC(NC(=O)C4CCOCC4)C3)ncc2Cl)nc2ccccc21 [Example A-205, N-{1-[5-chloro-4-(1-methyl-1H-benzimidazol-2-yl)pyridin-2-yl]azetidin-3-yl}tetrahydro-2H-pyran-4-carboxamide] | 93% |  | 0.0142 µM
Cn1c(-c2cc(N3CCC(CS(C)(=O)=O)CC3)ncc2Cl)nc2ccccc21 [Example A-51, 2-(5-chloro-2-{4-[(methylsulfonyl)methyl]piperidin-1-yl}pyridin-4-yl)-1-methyl-1H-benzimidazole] | 99% | 0.006 µM | 0.007 µM
CCS(=O)(=O)N1CCN(c2cc(-c3nc4ccccc4n3C)c(Cl)cn2)CC1 [Example A-27, 2-{5-chloro-2-[4-(ethylsulfonyl)piperazin-1-yl]pyridin-4-yl}-1-methyl-1H-benzimidazole] | 93% | 0.049 µM | 0.005 µM
Cn1c(-c2cc(N3CCc4[nH]cnc4C3)ncc2Cl)nc2ccccc21 [Example A-107, 5-[5-chloro-4-(1-methyl-1H-benzimidazol-2-yl)pyridin-2-yl]-4,5,6,7-tetrahydro-1H-imidazo[4,5-c]pyridine] | 77% | 0.123 µM | 0.037 µM
